Measurements as given in patent US20260125389A1, “MEMBRANE-ASSOCIATED TYROSINE AND THREONINE KINASE INHIBITOR AND USE THEREOF” (HAINAN SIMCERE ZAIMING PHARMACEUTICAL CO., LTD., priority 2022, published 2026).

molecular target: T1, PKMYT1 (Homo sapiens, UniProt Q99640); test: Inhibition assay for PKMYT1 enzyme activity (ADP-Glo); assay type: biochemical; conditions: MYT1 2 ng/μL, ATP 25 μM, substrate CDK1 20 ng/μL, 40 min reaction, read-out: IC50 values of compounds for PKMYT1 inhibition activity
T1 sequence (Q99640 1-499): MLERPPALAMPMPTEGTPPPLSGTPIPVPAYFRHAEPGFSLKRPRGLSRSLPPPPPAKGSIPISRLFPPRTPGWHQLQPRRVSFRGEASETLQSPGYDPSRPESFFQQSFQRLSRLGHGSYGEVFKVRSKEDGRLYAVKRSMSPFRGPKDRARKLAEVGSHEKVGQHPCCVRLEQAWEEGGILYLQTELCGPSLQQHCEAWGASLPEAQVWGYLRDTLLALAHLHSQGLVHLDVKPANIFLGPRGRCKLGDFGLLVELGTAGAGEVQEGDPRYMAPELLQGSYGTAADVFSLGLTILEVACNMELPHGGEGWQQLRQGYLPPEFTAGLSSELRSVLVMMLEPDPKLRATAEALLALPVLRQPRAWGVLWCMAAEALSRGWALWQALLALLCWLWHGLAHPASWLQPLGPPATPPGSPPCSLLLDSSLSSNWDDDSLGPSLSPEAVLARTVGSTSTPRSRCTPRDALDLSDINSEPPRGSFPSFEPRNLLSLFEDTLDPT
Description: Experimental principle: After co-incubation of PKMYT1 with the compound, the substrate CDK1 was phosphorylated under the action of ATP. ADP produced by the reaction was quantified using an ADP-Glo™ assay kit from Promega to reflect the enzyme activity.
Experimental method: Using the Echo liquid handler, the test compound was diluted to different concentrations in dimethyl sulfoxide (DMSO) and transferred to a 384-well plate. Thus, the final concentration of the compound in the reaction system started at 1 μM and was subjected to a 3-fold serial dilution, with the final DMSO concentration maintained at 1%. 50 nL/well of the test compound solution was added. 3 μL/well of MYT1 diluted with Kinase Dilution Buffer was then added. […] After incubation for 30 min, the fluorescence signal values were measured using an Envision microplate reader.
The % compound inhibition was calculated and fitted using XLfit software to obtain the IC50 value of the compound. […]
Herein, the experimental well, blank well, and DMSO group refer to the fluorescence signal values recorded from the experimental group, blank group, and DMSO group, respectively.
The inhibitory activity of the compounds of the present application on PKMYT1 was determined by the above assay, and the IC50 values obtained are as shown in Table 1.

Row | IC50 [nM] | SMILES
1 | 8.8 | Cc1ccc(O)c(C)c1-n1c(N)c2c3c(ncnc31)-c1ccccc1NC2=O [Compound 1, 5-amino-4-(3-hydroxy-2,6-dimethylphenyl)-4,7-dihydro-6H-1,3,4,7-tetraazadibenzo[cd,f]azulen-6-one]
2 | 5.7 | Cc1nc2c3c(c(N)n(-c4c(C)ccc(O)c4C)c3n1)C(=O)Nc1ccccc1-2 [Compound 2, 5-amino-4-(3-hydroxy-2,6-dimethylphenyl)-2-methyl-4,7-dihydro-6H-1,3,4,7-tetraazadibenzo[cd,f]azulen-6-one]

tested on: HCC1569 cells; test: Inhibition of tumor cell proliferation (CTG, HCC1569); assay type: cell-based; conditions: Homo sapiens, 168 h, 7 days incubation, CTG readout, read-out: IC50 of compounds for inhibition of HCC1569 cell growth
Description: Experimental principle: The compound was incubated with tumor cells for 7 days, and ATP in viable cells was quantified using the CTG kit from Promega to evaluate the effect of the compound on tumor cell proliferation.
Experimental method: The cultured cells were resuspended after being rinsed with PBS (for adherent cells) and digested with 0.25% Trypsin-EDTA, followed by cell counting to determine cell density and viability. 3000 HCC1569 cells/well were diluted with RPMI Medium 1640 containing 10% FBS, added to a 96-well plate (90 μL/well), and cultured in an incubator at 37° C. with 5% CO2 for 24 h. The test compound was diluted to different concentrations in dimethyl sulfoxide (DMSO) and added to a 96-well plate. Thus, the final concentration of the compound in the reaction system started at 25 μM and was subjected to a 4-fold serial dilution, with the final DMSO concentration maintained at 0.25%. The compound and cells were further incubated at 37° C. with 5% CO2 for 7 days. 50 μL/well of CTG was then added to measure the inhibitory effect of the compound on tumor cell growth, and the inhibition rate and half-maximal inhibitory concentration (IC50) were calculated.
The % compound inhibition was calculated and fitted using XLfit software to obtain the IC50 of the compound.
Blank wells and DMSO wells were set up. The blank well contained 100 μL of RPMI Medium 1640 with 10% FBS, where the inhibition rate of the compound on tumor cell growth was considered 100%. The DMSO well contained 0.25% DMSO added to the cell well, where the inhibition rate of the compound on tumor cell growth was considered 0%.

Row | IC50 [nM] | SMILES
3 | 81.9 | Cc1nc2c3c(c(N)n(-c4c(C)ccc(O)c4C)c3n1)C(=O)NCc1c-2ccnc1OC(F)F [Compound 39, 2-amino-6-(difluoromethoxy)-1-(3-hydroxy-2,6-dimethylphenyl)-11-methyl-4,5-dihydro-1,4,7,10,12-pentaazabenzo[4,5]cyclooctatetraeno[1,2,3-cd]inden-3(1H)-one]
4 | 87.6 | Cc1nc2c3c(c(N)n(-c4c(C)ccc(O)c4C)c3n1)C(=O)NCc1c-2ccnc1OCF [Compound 40, 2-amino-6-(fluoromethoxy)-1-(3-hydroxy-2,6-dimethylphenyl)-11-methyl-4,5-dihydro-1,4,7,10,12-pentaazabenzo[4,5]cyclooctatetraeno[1,2,3-cd]inden-3(1H)-one]
5 | 194 | Cc1nc2c3c(c(N)n(-c4c(C)ccc(O)c4C)c3n1)C(=O)NCc1c-2ccnc1C#N [Compound 45, 2-amino-1-(3-hydroxy-2,6-dimethylphenyl)-11-methyl-3-oxo-1,3,4,5-tetrahydro-1,4,7,10,12-pentaazabenzo[4,5]cyclooctatetraeno[1,2,3-cd]indene-6-carbonitrile]
6 | 20.9 | Cc1nc2c3c(c(N)n(-c4c(C)ccc(O)c4C)c3n1)C(=O)NCc1c-2ccc(F)c1C#N [Compound 49, 2-amino-7-fluoro-1-(3-hydroxy-2,6-dimethylphenyl)-11-methyl-3-oxo-1,3,4,5-tetrahydro-1,4,10,12-tetraazabenzo[4,5]cyclooctatetraeno[1,2,3-cd]inden-6-carbonitrile]

More lines, now with the values behind:

Row | SMILES | IC50 [nM]
7 | Cc1ccc(O)c(C)c1-n1c(N)c2c3c(ncnc31)-c1ccccc1NC2=O [Compound 1, 5-amino-4-(3-hydroxy-2,6-dimethylphenyl)-4,7-dihydro-6H-1,3,4,7-tetraazadibenzo[cd,f]azulen-6-one] | 42
8 | Cc1nc2c3c(c(N)n(-c4c(C)ccc(O)c4C)c3n1)C(=O)Nc1ccccc1-2 [Compound 2, 5-amino-4-(3-hydroxy-2,6-dimethylphenyl)-2-methyl-4,7-dihydro-6H-1,3,4,7-tetraazadibenzo[cd,f]azulen-6-one] | 22
9 | Cc1nc2c3c(c(N)n(-c4c(C)ccc(O)c4C)c3n1)C(=O)NCc1c-2ccnc1OC(F)(F)F [Compound 41, 2-amino-1-(3-hydroxy-2,6-dimethylphenyl)-11-methyl-6-(trifluoromethoxy)-4,5-dihydro-1,4,7,10,12-pentaazabenzo[4,5]cyclooctatetraeno[1,2,3-cd]inden-3(1H)-one] | 86.1
10 | Cc1nc2c3c(c(N)n(-c4c(C)ccc(O)c4C)c3n1)C(=O)Nc1c-2cnn1C(F)F [Compound 42, 5-amino-8-(difluoromethyl)-4-(3-hydroxy-2,6-dimethylphenyl)-2-methyl-7,8-dihydro-1,3,4,7,8,9-hexaazabenzo[cd]cyclopenta[f]azulen-6(4H)-one] | 46.3
11 | COCCn1ncc2c1NC(=O)c1c(N)n(-c3c(C)ccc(O)c3C)c3nc(C)nc-2c13 [Compound 43, 5-amino-4-(3-hydroxy-2,6-dimethylphenyl)-8-(2-methoxyethyl)-2-methyl-7,8-dihydro-1,3,4,7,8,9-hexaazabenzo[cd]cyclopenta[f]azulen-6(4H)-one] | 291
12 | Cc1ccc(O)c(C)c1-n1c(N)c2c3c(c(C)c(C)nc31)-c1nn(C)cc1NC2=O [Compound 44, 5-amino-4-(3-hydroxy-2,6-dimethylphenyl)-1,2,9-trimethyl-7,9-dihydro-3,4,7,9,10-pentaazabenzo[cd]cyclopenta[f]azulen-6(4H)-one] | 55.2
13 | Cc1nc2c3c(c(N)n(-c4c(C)ccc(O)c4C)c3n1)C(=O)NCc1c-2ccnc1C1CC1 [Compound 46, 2-amino-6-cyclopropyl-1-(3-hydroxy-2,6-dimethylphenyl)-11-methyl-4,5-dihydro-1,4,7,10,12-pentaazabenzo[4,5]cyclooctatetraeno[1,2,3-cd]inden-3(1H)-one] | 113
14 | CCOc1nccc2c1CNC(=O)c1c(N)n(-c3c(C)ccc(O)c3C)c3nc(C)nc-2c13 [Compound 47, 2-amino-6-ethoxy-1-(3-hydroxy-2,6-dimethylphenyl)-11-methyl-4,5-dihydro-1,4,7,10,12-pentaazabenzo[4,5]cyclooctatetraeno[1,2,3-cd]inden-3(1H)-one] | 32
